The subject of one data set is LEMS patients. To be noted: cited from earlier work.
The next data set concerns MS patients. To be noted: described in the literature; cited from earlier work.
Data set [1] deals with fatigue symptomatology after COVID infection. Nature of the data set: Off-label therapy case descriptions (cases 1 to 3) of fatigue symptomatology after COVID infection. It is filed as in vivo, human. The protocol: (§1) Pyridine-3,4-diamine Amifampridine (formulation as finished drug) was administered in the below-mentioned application examples. As part of the double-blind study, capsules that look the same with Amifampridine or placebo were prepared blind by a pharmacy, whereby only the pharmacy knew which capsules contained active ingredient or placebo.
The following laboratory and ECG controls for detecting substance-associated complications were inconspicuous.
In case 3, a patient is described, who suffered from fatigue symptomatology with a need for sleep of up to 2×9 hours per day, after being infected with COVID twice.

Data set [2] concerns fatigue symptomatology in post-COVID syndrome (PCS). The data set can be described thus: Further study (case series, pat. 1 to 5): Bell score and need for sleep in post-COVID syndrome under Amifampridine. It counts as in vivo, human. The source says: (§2) The Bell-score (or scale) is a measure of the impediment in the case of ME & CFS. It is also suitable for long COVID patients. The Bell scale is individual because each patient has a different stress tolerance and suffering from severe symptoms at rest can be relatively different. • 100 No symptoms at rest; no symptoms with physical stress; a normal overall activity level; able to work full-time without any difficulties. • 90 No symptoms at rest; mild symptoms with physical and mental stress; a normal overall activity level; able to work full-time without any difficulties. • 80 Mild symptoms at rest; the symptoms intensify due to stress; a slight performance limitation noticeable only with activities, which are strenuous; able to work full-time in jobs, which require exertion of force, with difficulties. • 70 Mild symptoms at rest; significant limitations noticeable in the daily activities; the functional state is a total of about 90% of the norm—with the exception of activities, which require an exertion of force; able to work full-time with difficulties. • 60 Mild symptoms at rest; significant limitations in the daily activities; the functional state is a total of about 70%-90% of the norm; unable to work a full-time job if physical work is required there; however, able to work full-time if it is light work and the hours of work can be handled flexibly. • 50 Moderate symptoms at rest; moderate to severe symptoms in response to physical stress or activity; the functional state is reduced to 70% of the norm; unable to perform strenuous work, but able to perform light work or desk work for 4-5 hours daily, whereby rest periods are required. • 40 Moderate symptoms at rest; moderate to severe symptoms in response to stress or activity; the functional state is reduced to 50%-70% of the norm; unable to perform strenuous work, but able to perform light work or desk work for 3-4 hours daily, whereby rest periods are required. • 30 Moderate to severe symptoms at rest; severe symptoms in response to any stress or activity; the functional state is reduced to 50% of the norm; generally housebound; unable to perform strenuous work, but able to perform light work or desk work for 2-3 hours daily, whereby rest periods are required. • 20 Moderate to severe symptoms at rest; severe symptoms in response to any stress or activity; the functional state is reduced to 30%-50% of the norm, except for rare exceptions, unable to leave the house; bedridden for the majority of the day; unable to concentrate for more than one hour per day. • 10 Severe symptoms at rest; bedridden most of the time; leaving the house is not possible; significant cognitive symptoms, which make it impossible to concentrate. • 0 Constant severe symptoms; always bedridden; unable to perform the simplest care measures.
A further study was performed on a patient group. A reduced fatigue symptomatology was determined in this study as well in the case of post-COVID syndrome under Amifampridine.
The prevalence of a post-COVID syndrome (PCS) is 10-15% after SARS-CoV-2 infection, a large variety of functional symptoms appear in addition to specific organ diseases, predominantly a fatigue symptomatology. The latter is characterized by persistent tiredness, weakness, cognitive deficits as well as increased need for sleep. […] The Bell score, which focusses on the limitation of the vigilance, physical endurance and job, was used for the evaluation. • In the case of pat. 1 of the further study, a previous Zn. EBV infection is known, otherwise no internal or neurological preexisting conditions. Fluctuating fatigue symptomatology after SARS-CoV-2 infection in May of 2022 with a Bell score between 20 and 40, increased need for sleep with 12 hours/24 h. After taking 5 mg of Amifampridine three times within 24 h (h: hours), there was complete convalescence with a Bell score of 100, the need for sleep reduced to 7 hours/24 h. Withdrawal trials ended in a fatigue again. • In the case of pat. […]

The subject of data set [3] is fatigue symptomatology after SARS-CoV-2 infection. Nature of the data set: Patients 2.1 to 2.5: Bell score and cumulative sleep time in 24 h with and without Amifampridine. It counts as in vivo, human. To be noted: for Bell score, long term: long-term medication, daily dose 20 mg to 25 mg, 5 mg each at an interval of 4 hours.
From the text: as §2
The following dosages of patients 2.1 to 2.5 and the changed Bell score values as well as the need for sleep in hours are illustrated in FIGS. 1 and 2 (FIG. 1 Bell-score with and without Amifampridine, patients 2.1 to 2.5, FIG. 2: cumulative sleep time in 24 h).
In the case of pat. 2.1, a psychotherapist without internal or neurological preexisting conditions, fluctuating fatigue symptomatology with a Bell score between 20 and 40 as well as increased need for sleep with 12 hours/24 h occurred after SARS-CoV-2 infection in May of 2022. After taking 5 mg of Amifampridine once, there was complete convalescence with a Bell score of 100, the need for sleep reduced to 7 hours/24 h.
After withdrawal trials (three days no Amifampridine) with recurrent fatigue, a long-term medication with a daily dose of 20 mg to 25 mg of 5 mg each at an interval of 4 hours occurred, whereby the Bell score is permanently from 90 to 100. This Bell score value can already be maintained for three quarters of a year. Taken from morning to night before going to sleep.
In the case of pat. […]

Data set [4] relates to fatigue after SARS-CoV-2 infection. Nature of the data set: Double-blind withdrawal trial (verum/placebo, 3 days each) in pat. 2.1 and 2.2. It counts as in vivo, human. As to conditions: at start of the double-blind trial, already on Amifampridine (4 times 5 mg per day). The protocol:
as §1
In the case of pat. 2.1 and 2.2, a long-term medication with 20 mg of Amifampridine each per day were required for reconvalescence and thus offered prerequisites for a double-blind withdrawal trial for 3 days each.
Pat. 2.1 with verum on days 1-3, followed by placebo on days 4-6:
Pat. (pat. 2.1) with Bell score 90 already started with Amifampridine, as described above, and continued this with blister with […] each day, one drawer with capsules for 3 days with 4 times 5 mg of Amifampridine each. The dosage for 3 days each was placebo with 4 times placebo capsules each for patient 1 and 2 (verum and placebo).
Pat. 2.1: verum on days 1-3, followed by placebo on days 4-6: reduction of the Bell score to minimally 30 in the placebo phase, increased sleep time to 10.5 hours (FIG. 3: pat. 2.1, Bell score (line with squares with side lines of the squares parallel and perpendicular to the main line; sleep time/24 h (line with smaller squares, tips of squares point upwards/downwards as well as to the right and left). […]

The mark [5] stands for this setting: pat. 5 (LEMS), 5 mg three or four times as daily dose.
[6] abbreviates: pat. 2.5 (LEMS), 60 mg, later 70 mg per day (3 times 20 mg, optionally additional 5 mg).
[7] abbreviates: pat. 2.5 (LEMS), initial administration of 3×5 mg.

Entries after “also recorded” stand apart in the source; their conditions may differ.

Data on three compounds can be found in US20250152566A1 (priority 2023, published 2025).

Regarding Amifampridine Phosphate, in the data set with LEMS patients (as phosphates, 20 to 80 mg as daily doses, J Clin Neuromuscul Dis. 2019), the “coincident fatigue with LEMS” value is given as “Improvement of a coincident fatigue”.
Take `Nc1ccncc1` [Fampridine]: in the data set with MS patients, the “accompanying fatigue symptomatology in MS patients” value is “improvement of an accompanying fatigue symptomatology; also recorded: favorable effects”.
Turning to `Nc1ccncc1N` [Amifampridine, Pyridine-3,4-diamine], in data set [1] (case 1), the muscular deficits entry is reported as “immediate improvement of the muscular deficits”. For the same compound, in data set [1] (case 1, need for sleep or rest up to 20 hours per day before), the “serious fatigue symptomatology existing since the COVID infection” value was “sudden improvement”. Moreover, the “laboratory and ECG controls for detecting substance-associated complications” value in data set [1] (case 2) was “inconspicuous”. Besides, the ability to concentrate entry in data set [1] (case 2, 5 mg of Amifampridine) is recorded as “complete restitution of the ability to concentrate”; in data set [1] (case 3, 5 mg of Amifampridine), “sudden improvement of the ability to concentrate”. Moreover, in data set [1] (case 2, 5 mg of Amifampridine), the assignable side effects entry is recorded as “Slight perioral paresthesias”. In addition, the fatigue symptomatology result in data set [1] (case 2, 5 mg of Amifampridine) was “complete improvement of the fatigue symptomatology”. Also, the existing fatigue entry in data set [1] (case 2, daily dose of 3×5 mg) is listed as “ceases completely”. The side effects entry in data set [1] (case 3, 5 mg of Amifampridine) was “Transient perioral paresthesias with very low intensity”. Further, the “need for sleep and rest” value in data set [1] (case 3, 5 mg of Amifampridine, before up to 2×9 hours per day) was “physiological need for sleep and rest”. Also, the need for sleep in data set [2] (pat. 1, after 5 mg three times within 24 h, before 12) was 7 hours/24 h; in data set [2] (pat. 2, after 5 mg three times, before 12) it was 7.5 hours/24 h; in data set [2] (pat. 3, after taking 5 mg, before 11 to 12 hours/24 h) it was 7 to 9 h; in data set [2] (pat. 4, 5 mg three times within 24 h, before 12 to 14) it was 8 to 10 hours/24 h; in data set [2] (pat. 5 (LEMS), 5 mg three or four times as daily dose, before 16 to 18) it was 8-9 hours/24 h; in data set [3] (pat. 2.1, after taking 5 mg once, before 12) it was 7 hours/24 h. In addition, the need for sleep in data set [3] (pat. 2.2, after taking 5 mg, before 11-12 hours/24 h) is 7 to 9 h; in data set [3] (pat. 2.3, after 5 mg, before 12), 7.5 hours/24 h; in data set [3] (pat. 2.5 (LEMS), initial administration of 3×5 mg, before 16-18), 8-9 hours/24 h; in data set [3] (patient 2.4, after 5 mg, before 12-14), 8 to 10 hours/24 h. The Bell score was found to be 100 in data set [2] (pat. 1, after 5 mg three times within 24 h, before 20 to 40); 100 in data set [2] (pat. 2, after 5 mg three times, before 40); 100 in data set [2] (pat. 3, after taking 5 mg, before 40); 50 in data set [2] (pat. 4 (post-COVID myocarditis), 5 mg three times within 24 h, before 20); 100 in data set [3] (pat. 2.1, after taking 5 mg once, before 20 to 40); 80 in data set [3] (pat. 2.2, after taking 5 mg, before 40). Moreover, the Bell score worked out at 100 in data set [3] (pat. 2.3, after 5 mg, before 40); 80 in data set [3] (pat. 2.5 (LEMS), initial administration of 3×5 mg, before 10); 50 in data set [3] (patient 2.4 (post-COVID myocarditis), after 5 mg, before 20); 90 in data set [4]. Moreover, the vigilance result in data set [2] (pat. 2, after 5 mg three times) is “unlimited vigilance”; in data set [3] (pat. 2.3, after 5 mg), “unlimited vigilance”. The “duration of the effect” value was “about 36 hours” in data set [2] (pat. 3, after taking 5 mg) and “about 36 hours” in data set [3] (pat. 2.2, after taking 5 mg). For the same compound, the fatigue entry in data set [2] (setting [5]) and in data set [3] (setting [7]) was “the fatigue ceased” in each case. The muscular endurance result in data set [2] (setting [5]) and in data set [3] (setting [7]) was “improved muscular endurance” throughout. Further, the “Bell score, long term” value in data set [3] (pat. 2.1, held for three quarters of a year) was 90 to 100; in data set [3] (pat. 2.2, past month), 90 to 100. Moreover, the “Bell score with regard to fatigue” value in data set [3] (setting [6]) is given as 70 to 80. Besides, in data set [3] (setting [6]), the “Bell score with regard to the muscular deficits” value was “approx. 20”. The “co-indicated / coincident fatigue of LEMS patients” value with LEMS patients (LEMS patients) is “improvement of a co-indicated fatigue”.
